Assay results taken from patent US20070244076A1, “Site and Rate Selective Prodrug Formulations of D609 with Antioxidant and Anticancer Activity” (priority 2003, published 2007).
Structures can show the parent of a compound that is named as a salt. One block for each compound: values may come before it. Numbered stars: 1 amine (or outer) side, 2 acyl side, 3 side chain; on linkers, the order of the positions; unused ones are H or OH. Bridge positions count the residues as written; N and C are the ends. Square brackets hold non-standard residues; d marks the D form. Peptide text beside a SMILES is read from it. I, II: the chains in the order shown. Actinocin(9to1) = Cc1c2oc3c(C)ccc(C(=O)[*:1])c3nc-2c(C(=O)[*:2])c(N)c1=O; NMeV = CN[C@H](C(=O)O)C(C)C; Sar = CNCC(=O)O

Assays:
[1] = cited from earlier work
[2] = previously untreated chronic myelogenous leukemia; cited from earlier work
[3] = cited from earlier work; remark: listed apart in the source
U937 cells = assay: U937 apoptosis, Annexin V-FITC staining and flow cytometry; assay type: cell-based, Human; conditions: for induction of apoptosis: 24 hr, low dose of H7 (25 μM) or ceramide (5 μM)
Method: It is well known that ceramide functions as a negative cell regulator that can induce cell cycle arrest, senescence or apoptosis. In contrast, DAG stimulates cell proliferation and promotes cell survival, primarily via activation of PKC. To determine if the changes in the levels of ceramide and DAG resulting from SMS inhibition contribute to D609-induced apoptosis in U937 cells, the cells were incubated with vehicle, H7 (a PKC inhibitor), ceramide, or H7 plus ceramide. U937 cells (1×10^6/ml) were incubated with 5 μM C6-ceramide and 25 μM H7 alone or combination for 24 hr at 37° C. Apoptosis of the cells was measured by Annexin V-FITC staining and flow cyotmetry and expressed as percent of Annexin V positive cells. a, p<0.05 vs Control; b, p<0.05 vs H7- or C6-treated cells (FIG. 11).
In these experiments, U937 cells were pre-incubated with PMA (25 nM) for 30 min. and then were cultured with vehicle or D609 (150 μM) for 24 hrs.

[4] = system: Porcine liver esterase (PLE); assay: Esterase-catalyzed hydrolysis of D609 prodrugs; assay type: in vitro ADME; conditions: for T1/2 / kobs: 300 μM, 0.1 unit/ml PLE, 37° C., pH 7.4
Method: FIG. 18A, FIG. 18B, FIG. 18C: Esterase-catalyzed hydrolysis of D609 prodrugs. Prodrugs (300 μM in 15% DMSO/PBS, pH 7.4), 1 (FIG. 18A), 2 (FIG. 18B) and 3 (FIG. 18C), were incubated at 37° C. in the presence of 0.1 unit/ml PLE. […] The data are presented as the mean±SEM of three independent assays.
To determine the hydrolytic property of D609 prodrugs 1, 2, and 3 (300 μM in 15% DMSO/PBS, pH7.4), these prodrugs were incubated with 0.1 unit/ml PLE at 37° C. After various times during incubation, the rate of hydrolysis of these D609 prodrugs was monitored by HPLC analysis. […] The concentration of D609 (μM) was calculated based on a linear D609-DTNB standard curve. The pseudo-first-order plots for the hydrolysis of these prodrugs were constructed from the logarithm of remaining ester versus time (FIG. 18). The end points of the reaction (150 min) were defined as when the hydrolysis of these prodrugs was over 99% complete and the release of D609 reached plateau. The pseudo-first-order rate constant (Kobs) and T1/2 (=0.693/Kobs) were calculated based on the slope of the linear portion of the curve for each of these prodrugs and are presented in Table 1 (Gilmer et al., 2002).

[5] = system: sphingomyelin synthase (SMS); assay: SMS activity in U937 cell lysates with inhibitor added (cell lysate-based in vitro assay); assay type: biochemical, Human; conditions: 30 min at 30° C.
Method: (§1) In this study, p-nitrophenyl-phosphorylcholine (pNPP, 40 mM) was incubated with 2 U/ml phospholipase C (Type XI from B. cereus) in the presence or absence of various concentrations of inhibitors for 2 hrs at 37° C. The amount of the cleaved substrate pNPP was quantified by determination of the optical density at 410 nm using an ELISA reader. The results are expressed as percent of vehicle control and presented as means±SEM (n=3) (FIG. 9A). NBD-C6-ceramide and PC were incubated with U937 cell lysates containing 50 μg protein in the presence or absence of various concentrations of inhibitors for 30 min at 30° C. The formation of NBD-C6-sphingomyelin as analyzed by TLC and quantified by determination of the fluorescent intensity of NBD-C6-sphingomyelin using a phosphorimager. The results are expressed as percent of vehicle control (FIG. 9B). U937 cells were incubated with different concentrations of inhibitors for 48 hours.

[6] = molecular target: phospholipase C (Type XI from B. cereus) (Bacillus cereus, UniProt P09598); assay type: biochemical; conditions: 2 hrs at 37° C., pNPP 40 mM
Chain of phospholipase C (Type XI from B. cereus) (P09598 39-283 limits assumed): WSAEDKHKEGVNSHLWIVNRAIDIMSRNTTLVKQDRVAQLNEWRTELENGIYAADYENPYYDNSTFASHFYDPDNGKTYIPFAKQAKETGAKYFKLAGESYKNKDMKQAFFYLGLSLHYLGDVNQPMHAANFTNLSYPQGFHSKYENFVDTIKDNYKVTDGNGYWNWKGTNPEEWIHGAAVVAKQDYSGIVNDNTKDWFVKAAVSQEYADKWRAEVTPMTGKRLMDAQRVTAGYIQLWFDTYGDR
Method: as §1

alkaline phosphatase = conditions: 222 μM, 3.125 U/ml, pH 9.0, 37° C.
[7] = Chevion et al., 1997; cited from earlier work

SMILES: Cc1c2oc3c(C)ccc(C(=O)N[C@@H]4C(=O)N[C@H](C(C)C)C(=O)N5CCC[C@H]5C(=O)N(C)CC(=O)N(C)[C@@H](C(C)C)C(=O)O[C@@H]4C)c3nc-2c(C(=O)N[C@@H]2C(=O)N[C@H](C(C)C)C(=O)N3CCC[C@H]3C(=O)N(C)CC(=O)N(C)[C@@H](C(C)C)C(=O)O[C@@H]2C)c(N)c1=O [Actinomycin D] (I: T[dV]P[Sar][NMeV] / II: T[dV]P[Sar][NMeV]; ester I:1-I:C, II:1-II:C; linker I:N-II:N via Actinocin(9to1))
- excreted intact into the bile ([1]; in vivo): Half of the dose
- excreted intact into the urine ([1]; in vivo): 10%
- half-life (elimination) ([1]; in vivo): about 36 hr
- passage of the blood-brain barrier ([1]; in vivo): does not pass the blood-brain barrier

SMILES: CS(=O)(=O)OCCCCOS(C)(=O)=O [Busulfan, 1,4-butanediol dimethanesulfonate]
- adults obtaining hematologic remission [2]: Approximately 90%

SMILES: O=C(O)CCCc1ccc(N(CCCl)CCCl)cc1 [Chlorambucil, 4-[bis(2-chlorethyl)amino] benzenebutanoic acid]
- oral absorption ([1]; in vivo): rapidly and completely absorbed from the gastrointestinal tract

SMILES: N.N.[Cl][Pt][Cl] [Cisplatin]
- oral absorption ([1]; in vivo): not absorbed orally

SMILES: COc1cccc2c1C(=O)c1c(O)c3c(c(O)c1C2=O)C[C@@](O)(C(C)=O)C[C@@H]3O[C@H]1C[C@H](N)[C@H](O)[C@H](C)O1 [Daunorubicin, 5,12-Naphthacenedione, (8S-cis)-8-acetyl-10-[(3-amino-2,3,6-trideoxy-a-L-lyxo-hexanopyranosyl)oxy]-7,8,9,10-tetrahydro-6,8,11 trihydroxy-10-methoxy-, hydrochloride]
- oral absorption ([1]; in vivo): Oral absorption is poor
- half-life (elimination) ([1]; in vivo): about 19 hr

SMILES: COc1cccc2c1C(=O)c1c(O)c3c(c(O)c1C2=O)C[C@@](O)(C(=O)CO)C[C@@H]3O[C@H]1C[C@H](N)[C@H](O)[C@H](C)O1 [Doxorubicin, 5,12-Naphthacenedione, (8s-cis)-10-[(3-amino-2,3,6-trideoxy-α-L-lyxo-hexopyranosyl)oxy]-7,8,9,10-tetrahydro-6,8,11-trihydroxy-8-(hydroxyacetyl)-1-methoxy-hydrochloride]
- oral absorption ([1]; in vivo): absorbed poorly
- half-life (elimination) ([1]; in vivo): about 30 hr

SMILES: O=NN(CCCl)C(=O)NC1CCCCC1 [Lomustine, 1-(2-chloro-ethyl)-3-cyclohexyl-1 nitrosourea]
- radioactivity excreted as degradation products ([1]; oral, 30 mg/m^2 to 100 mg/m^2, within 24 hours): about half

SMILES: CO[C@@]12[C@H](COC(N)=O)C3=C(C(=O)C(C)=C(N)C3=O)N1C[C@@H]1N[C@@H]12 [Mitomycin]
- time required to reduce the serum concentration by 50% ([3]; 30 mg. bolus injection): 17 min
- dose excreted unchanged in the urine ([3]; in vivo): Approximately 10%

SMILES: CCCCCCCCCCCCCC(=O)O[C@@H]1[C@@H](C)[C@@]2(O)[C@@H](C=C(CO)C[C@]3(O)C(=O)C(C)=C[C@@H]23)[C@@H]2C(C)(C)[C@]12OC(C)=O [PMA]
- effect on D609-induced apoptosis (U937 cells; PMA 25 nM 30 min before D609 150 μM, 24 hrs): partially attenuated D609-induced apoptosis

- T1/2 [4]: 3.34 min
- kobs [4]: 0.2074 min⁻¹
SMILES: CC(=O)OCSC(=S)OC1CC2CC1C1CCCC21 (stereo not shown) [Prodrug 1, S-methyleneoxyacetyl D609]

- T1/2 [4]: 23.22 min
- kobs [4]: 0.02984 min⁻¹
- % D609 (molar recovery of D609) ([4]; complete hydrolysis by esterase): 60%
SMILES: CC(C)(C)C(=O)OCSC(=S)OC1CC2CC1C1CCCC21 (stereo not shown) [Prodrug 3, S-methyleneoxypivalyl D609]

SMILES: CC1CNCCN1S(=O)(=O)c1cccc2cnccc12 (stereo not shown) [Prodrug H7]
- induction of apoptosis (U937 cells): modest

SMILES: OC1CC2CC1C1CCCC21 (stereo not shown) [Tricyclodecanol]
- inhibition of SMS activity [5]: devoid of any of these activities
- inhibition of PC-PLC activity [6]: devoid of any of these activities

SMILES: CC[C@]1(O)C[C@@H]2CN(CCc3c([nH]c4ccccc34)[C@@](C(=O)OC)(c3cc4c(cc3OC)N(C)[C@H]3[C@@](O)(C(=O)OC)[C@H](OC(C)=O)[C@]5(CC)C=CCN6CC[C@]43[C@@H]65)C2)C1 [Vinblastine]
- oral absorption ([1]; in vivo): Unpredictable absorption
- excreted intact into the urine ([1]; in vivo): Approximately 15%
- recovered in the feces after biliary excretion ([1]; in vivo): about 10%
- plasma half-life after distribution (first) ([1]; intravenous injection): approximately 1 hours
- plasma half-life after distribution (second) ([1]; intravenous injection): ~72000 s
- peak concentration in plasma ([1]; usual clinical doses): approximately 0.4 mM

SMILES: CC[C@]1(O)C[C@H]2CN(CCc3c([nH]c4ccccc34)[C@@](C(=O)OC)(c3cc4c(cc3OC)N(C=O)[C@H]3[C@@](O)(C(=O)OC)[C@H](OC(C)=O)[C@]5(CC)C=CCN6CC[C@]43[C@@H]65)C2)C1 [Vincristine]
- oral absorption ([1]; in vivo): Unpredictable absorption
- terminal half-life ([1]; plasma): about 24 hours

SMILES: CCCCCCCCCCCCCC=CC(O)C(CO)NC(=O)CCCCC (stereo not shown) [ceramide]
- induction of apoptosis (U937 cells): modest

SMILES: CC(C)(C)OP(=O)(OCSC(=S)OC1CC2CC1C1CCCC21)OC(C)(C)C (stereo not drawn) [compound 7, S-(methylenoxy)-D609, di(t-butoxy)phosphoryl]
- time to complete hydrolysis (alkaline phosphatase): ≤ 60 min

SMILES: S=C(S)OC1CCCCC1 [cyclohexyl xanthate]
- inhibition of SMS activity [5]: had no effect
- inhibition of PC-PLC activity [6]: dose-dependently inhibited

SMILES: COc1cccc2c1C(=O)c1c(O)c3c(c(O)c1C2=O)C[C@@](O)([C@H](C)O)C[C@@H]3O[C@H]1C[C@H](N)[C@H](O)[C@H](C)O1 [daunorubicinol]
- half-life (elimination) ([1]; in vivo): about 27 hr

SMILES: O=C1O[C@H]([C@@H](O)CO)C(O)=C1O [vitamin C]
- E1/2 [7]: 380 mV
